Data on 13 molecules can be found in patent US7183320B2, “Benzoylsulfonamides and sulfonylbenzamidines for use as antitumour agents” (Eli Lilly and Company, priority 2002, dated 2007).

System in the first data set: not given
Assay: not given
Settings: not given
Take `O=C(NS(=O)(=O)c1ccc(O)cc1)c1ccc(Cl)cc1Cl` [Example 117, N-[2,4-dichlorobenzoyl]-4-hydroxyphenylsulfonamide]: the melting point lay within 155 to 157 °C.

For a further data set, the system named is HCT116 colon carcinoma cells. The data set can be described thus: HCT116 colon carcinoma cell growth inhibition (WST-1, 72 hr). The format is cell-based, human. The following applies: 72 hr exposure. How it is done:
HCT116 Colon Carcinoma Cell Growth Inhibition
HCT116 colon carcinoma cells were grown monolayer culture in RPMI 1640 medium supplemented with 10% fetal bovine serum and 1% penicillin-streptomycin (GibcoBRL, Grand Island, N.Y.). HCT116 cells in exponential growth phase were exposed to various concentrations of the test compounds at 37° C. for 72 hr in 5% carbon dioxide/air. After exposure to the agent, the cells were washed with 0.9% phosphate buffered saline. Growth inhibition was determined using WST-1 cell proliferation reagent as described above. The results are expressed as the growth fraction of treated cells compared with control cultures. Representative compounds of the present invention were tested for efficacy against the human colon HCT116 tumor cells.
`CSc1ccc(-c2ccc(S(=O)(=O)NC(=O)c3ccc(Cl)cc3Cl)cc2)cc1` [Example 108, N-[2,4-dichlorobenzoyl]-4-(1-methylsulfanylo-phen-4-yl)phenylsulfonamide] yielded an IC50 of 16 µM.
For `CC(=O)c1cccc(-c2ccc(S(=O)(=O)NC(=O)c3ccc(Cl)cc3Cl)cc2)c1` [Example 109, N-[2,4-dichlorobenzoyl]-4-3′-acetyl-biphenylsulfonamide], the concentration for half-maximal inhibition (IC50) came out at 25.1 µM.
`COc1ccccc1-c1ccc(S(=O)(=O)NC(=O)c2ccc(Cl)cc2Cl)cc1` [Example 122, N-[2,4-dichlorobenzoyl]-4-(1-methoxy-phen-2-yl)phenylsulfonamide]: inhibition was half-maximal at 25.8 µM (IC50).
The same measure, in the same setting: the result for `COC(=O)c1ccc(-c2ccc(S(=O)(=O)NC(=O)c3ccc(Cl)cc3Cl)cc2)cc1` [Example 123, N-[2,4-dichlorobenzoyl]-4-(1-methoxycarbonyl-phen-4-yl)phenylsulfonamide] reads 37.7 µM.

Still in this data set, the particulars now being: Homo sapiens, HCT-116, 72 hr exposure.
The molecule `Cc1cc(Cl)ccc1C(=O)NS(=O)(=O)c1cccc(C#N)c1` [Example 106, N-[2-methyl-4-chlorobenzoyl]-3-cyanophenylsulfonamide] yielded an IC50 of 4.6 µM.
The same measure, in the same setting: the result for `O=C(NS(=O)(=O)c1ccc(Cl)cc1)c1ccc(Cl)cc1Cl` [Example 111, N-[2,4-dichlorobenzoyl]-4-chlorophenylsulfonamide] reads 15 µM; that for `O=C(NS(=O)(=O)c1ccc(Cl)cc1)c1ccc(Br)cc1Cl` [Example 112, N-[2-chloro-4-bromobenzoyl]-4-chlorophenylsulfonamide], 2.8 µM; that for `N=C(NS(=O)(=O)c1ccc(F)c(Cl)c1)c1ccc(Cl)cc1` [Example 115, N-[3-chloro-4-fluorophenylsulfonyl]-4-chlorobenzamidine], 33.6 µM.
`N=C(NS(=O)(=O)c1ccc(F)c(Cl)c1)c1ccc(F)c(Cl)c1` [Example 116, N-[3-chloro-4-fluorophenylsulfonyl]-3-chloro-4-fluorobenzamidine] returned a half-inhibitory concentration (IC50) of 5.9 µM.
Still for that read-out and setting: in the case of `O=C(NS(=O)(=O)c1ccc(-c2ccco2)cc1)c1ccc(Cl)cc1Cl` [Example 121, N-[2,4-dichloro-benzoyl]-4-furan-2-yl-phenylsulfonamide] it was 24.5 µM; in that of `O=C(NS(=O)(=O)c1ccc(-c2cccc3cccnc23)cc1)c1ccc(Cl)cc1Cl` [Example 124, N-[2,4-dichlorobenzoyl]-4-quinolin-8-yl-phenylsulfonamide], 5.6 µM.
Regarding `O=C(NS(=O)(=O)c1ccc(-c2ccoc2)cc1)c1ccc(Cl)cc1Cl` [Example 126, N-[2,4-dichlorobenzoyl]-4-fur-3-yl-phenylsulfonamide], the half-inhibitory concentration (IC50) amounted to 18.5 µM.
